The source of these data is patent US20060079537A1, “2-Substitutued triazolopyrimidines, methods and intermediate products for the production thereof, the use of the same controlling pathogenic fungi, and agents containing said compounds” (priority 2002, published 2006).

The test system of the test is Alternaria solani. As to the kind of experiment: Activity against early blight of tomato caused by Alternaria solani, protective application. It counts as in vivo. The settings on record: 250 ppm active compound, sprayed to runoff one day before infection; visual rating after 5 days; untreated plants 100% infected. As for the experimental part: The active compounds were formulated as a stock solution prepared using 0.25% by weight of active compound in acetone of DMSO. 1% by weight of the emulsifier Uniperol® EL (wetting agent having emulsifying and dispersant action based on ethoxylated alkylphenols) was added to this solution, and the solution was diluted with water to give the desired concentration.
Leaves of potted plants of the tomato cultivar: “Large Fruited St. Pierre” were sprayed to runoff point with an aqueous suspension having the concentration of active compound stated below. The next day, the leaves were infected with an aqueous spore suspension of Alternaria solani in a 2% biomalt solution having a density of 0.17×10^6 spores/ml. The plants were then placed in a water-vapor-saturated chamber at 20-22° C. After 5 days, the blight on the untreated but infected control plants had developed to such an extent that the infection could be determined visually in %.

In the case of `CSc1nc2nc(C)c(-c3c(F)cc(F)cc3F)c(N3CCC(C)CC3)n2n1` [Example 3, 5-methyl-6-(2,4,6-trifluorophenyl)-7-(4-methylpiperidin-1-yl)-2-thiomethyl-[1,2,4]-triazolo[1,5-a]pyrimidine], the infection amounted to 20%.
